Measurements: patent US20180353524A1, “CANCER TREATMENT USING 2-DEOXY-2-FLUORO-L-FUCOSE IN COMBINATION WITH A CHECKPOINT INHIBITOR” (SEATTLE GENETICS, INC., priority 2015, published 2018)

How the values were obtained:
A20 tumor cells = assay: A20 mouse lymphoma study, survival; format: in vivo, BALB/c mice
Method: A20 cells (ATCC) were cultured in RPMI 1640 with 10% FBS, 10 mM HEPES, 1 mM sodium pyruvate, 50 μM 2-mercaptoethanol and penicillin (100 U/ml)/streptomycin (100 μg/ml) (PS). All mice (BALB/c, n=6/group) were implanted with 1×10^5 A20 tumor cells (i.v.) and were divided into four groups: untreated; treated with 2FF only; treated with anti-PD1 antibody only; and treated with a combination of 2FF with anti-PD1 antibody. 2FF treatment groups received drinking water containing 20 mM 2FF beginning on the day of tumor implantand continued throughout the study. Mice not receiving 2FF were provided with normal drinking water. Anti-PD1 antibody (Ebiosciences, clone J43) treatment groups received three doses of 5 mg/kg every three days starting on day 5 post tumor implant. […] This is compared to only 17% survival in the untreated and the anti-PD1 alone treated groups after about 40 days of treatment lasting to the end of the experiment, and also compared to only 17% survival in 2FF alone treated group after 70 days of treatment also lasting to the end of the experiment at ˜90 days.

ZAP70 = assay: TCR signaling, pZAP70 western blot in CD3/CD28 activated T-cells; format: cell-based, human; conditions: CD3/CD28 bead activation 0-4 h, pZAP70 normalized to ZAP70
Method: Purified T-cells were plated in 6-well plates (2.5×10^6 cells/well, 2.5 mL T-cell medium) and were activated with CD3/CD28 beads (20 μL beads/well, Miltenyi Biotec, San Diego, Calif.) at 37 ° C. for 0-4 h. At the indicated time, samples were then harvested, washed in PBS, lysed with RIPA buffer (Thermo Scientific, containing DNAse and protease/phosphatase inhibitors), and snap frozen on dry ice followed by storage at −80 ° C. Cell lysates (˜3 μg/sample determined by BCA assay) were run on SDS-PAGE and examined by western blot on nitrocellulose membranes with anti-pZAP70 antibody (Cell Signaling Technologies). Briefly, blots were blocked for 1 h at room temperature in 5% milk in TBST (TBST from Cell Signling Technologies), rinsed with TBST and then incubated with primary antibody (anti-pZAP70 1:1000 in 5% BSA in TBST) at 4 ° C. overnight. Blots were washed 3× with TBST and probed with HRP-conjugated secondary antibodies for 1 hr at RT (1:2000 in 5% non-fat milk in TBST) followed by washing (3×TBST) and detection using Cell Signaling Elite ECL as per manufacturer instructions. Blots were scanned using an Amersham™ 600 imager (GE Healthcare). Once imaged, blots could be stripped and reprobed for additional markers using other primary antibodies. […]

## C[C@@H]1OC(O)[C@@H](F)[C@H](O)[C@@H]1O (stereo partly drawn) [2-deoxy-2-fluoro-L-fucose]
A20 tumor cells; BALB/c mice, i.v. A20 cells, 20 mM 2FF in drinking water, anti-PD1 5 mg/kg q3dx3 from day 5
  survival compared to the untreated group: increased survival compared to the untreated group
A20 tumor cells; after 70 days of treatment lasting to end of experiment at ~90 days, 20 mM 2FF drinking water
  survival of the mice: 17%
ZAP70
  Zap70 phosphorylation in treated T-cells compared to naive cells: significantly more phosphorylated and remains phosphorylated for a longer period of time
